Measured values as given in article PMC6624297 (Cell Death & Disease, 2019).

Experiments:
MDA-MB-231 cells = assay: MTT assay MDA-MB-231; type: cell-based; conditions: Homo sapiens, 24h of treatment, mean ± SD
Experimental: (§1) Details are given in Supplementary Materials and Methods. Using probability unit and weighted regression method to calculate the IC50 value of compounds.
(§2) Total cells in the logarithmic growth phase were collected, digested using 0.25% pancreatic enzymes, and then diluted into single-cell suspensions using phosphate-buffered solution (PBS). These cells were seeded into 96-well plates at 4× 10^3-5× 10^3 cells per well (100 µL per well) and then A549, H460, OVCAR-3, SGC7901, MDA-MB-231, HCT116 and HepG2 were cultured at 37°Cin an incubator containing 5% CO2. After cell complete attachment, 100 µL of different concentrations of compounds (0.625 μM, 1.25 μM, 2.5μM, 5 μM, 10 μM) were added to the cells after the nutrient solution in each well was discarded, while no compound except 0.1% DMSO was added to cells in the control group; at the same time, each concentration was set up to 5 wells. In addition, 5 wells in each 96-well plate only received 100 µL of nutrient solution as a blank control. The plates were taken out after the cells were incubated with compounds for 24 h, and 20 µL of MTT solution (5 mg/mL) (Wuhan Boster Biotechnology Limited Company, Wuhan, China; item No. AR1156) was added into all the wells. After another time of incubation for 4 h at 37 °C, the nutrient solution in each well was discarded slowly, and 150 µL of DMSO was added to each well. The plates were shaken on a shaking table for 20 min. When the crystals were fully dissolved, the blank wells were used to zero the plate reader. The optical density (OD) of each well was detected at 490 nm. The IC50 value was determined as the concentration of the inhibitor that caused 50% inhibition. Using probability unit and weighted regression method to calculate the IC50 value of compounds.

EGFR kinase = EGFR kinase (Homo sapiens, UniProt P00533); assay: ADP-Glo kinase assay, EGFR; type: biochemical; conditions: averages from triplicate assays
Experimental: (§3) The ADP-Glo™ kinase assay (Promega, Madison, WI) was used to screen target compounds for their inhibition effects for BRaf, EGFR kinase. The kinase assay was carried out in a 96-well plate, in a volume of 25 μL HEPES (pH 7.3) solvent containing 1.6 μg/mL EGF, and 20 ng of EGFR kinase, or 50 ng BRaf kinase, and 10 μM ATP (Promega, Madison, WI). […] Reactions in each well were started immediately by adding ATP and kept going for half an hour under 30 °C in a constant temperature incubator (Bluepard, Shanghai, China). After the plate cooled for 5 min at room temperature, 25 μl of ADP-Glo reagent was added into each well to stop the reaction and consume the remaining […] within 40 min. At the end, 50 μl of kinase detection reagent was added into the well and incubated for 1 h to produce a luminescence signal.

human TS (hTS) = target: T1, human TS (hTS) (Homo sapiens, UniProt P04818); assay: Thymidylate synthase (TS) spectrophotometric assay; type: biochemical; conditions: averages from triplicate assays
T1 construct: purchased ProSpec-Tany
Experimental: Recombinant human thymidylate synthase purchased from ProSpec-Tany Company. TS was assayed spectrophotometrically at 30 °C and pH 7.4 in a mixture containing 0.1 M 2-mercaptoethanol, 0.0003 M (6R,S)-tetrahydrofolate, 0.012 M formaldehyde, 0.02 M MgCl2, 0.001 M dUMP, 0.04 M Tris–HCl, 30 nM hTS, and 0.00075 M NaEDTA. […] The reaction was initiated by the addition of an amount of enzyme yielding a change in absorbance at 340 nm of 0.016/min in the absence of inhibitor.

A549 cells = assay: MTT assay A549; type: cell-based, human; conditions: Homo sapiens, A549, 24h of treatment, mean ± SD
Experimental: as §1, §2

SGC7901 cells = assay: MTT assay SGC7901; type: cell-based; conditions: Homo sapiens, SGC-7901, 24h of treatment, mean ± SD
Experimental: as §1, §2

BRaf kinase = BRaf kinase (Homo sapiens, UniProt P15056); assay: ADP-Glo kinase assay, BRaf; type: biochemical; conditions: averages from triplicate assays
Experimental: as §3

HepG2 cells = assay: MTT assay HepG2; type: cell-based; conditions: Homo sapiens, 24h of treatment, mean ± SD
Experimental: as §1, §2

HCT-116 cells = assay: MTT assay HCT-116; type: cell-based; conditions: Homo sapiens, 24h of treatment, mean ± SD
Experimental: as §1, §2

OVCAR-3 cells = assay: MTT assay OVCAR-3; type: cell-based; conditions: Homo sapiens, 24h of treatment, mean ± SD
Experimental: as §1, §2

T1 sequence (P04818 whole entry): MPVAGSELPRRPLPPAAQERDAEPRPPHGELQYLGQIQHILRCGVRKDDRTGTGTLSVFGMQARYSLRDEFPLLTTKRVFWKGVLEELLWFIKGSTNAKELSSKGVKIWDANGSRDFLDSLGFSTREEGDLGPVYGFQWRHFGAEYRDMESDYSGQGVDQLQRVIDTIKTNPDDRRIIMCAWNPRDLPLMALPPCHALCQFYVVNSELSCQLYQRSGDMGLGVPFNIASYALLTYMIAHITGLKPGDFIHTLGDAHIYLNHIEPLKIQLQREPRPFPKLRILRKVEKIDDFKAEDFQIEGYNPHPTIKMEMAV
BRaf kinase, sequence (P15056 whole entry): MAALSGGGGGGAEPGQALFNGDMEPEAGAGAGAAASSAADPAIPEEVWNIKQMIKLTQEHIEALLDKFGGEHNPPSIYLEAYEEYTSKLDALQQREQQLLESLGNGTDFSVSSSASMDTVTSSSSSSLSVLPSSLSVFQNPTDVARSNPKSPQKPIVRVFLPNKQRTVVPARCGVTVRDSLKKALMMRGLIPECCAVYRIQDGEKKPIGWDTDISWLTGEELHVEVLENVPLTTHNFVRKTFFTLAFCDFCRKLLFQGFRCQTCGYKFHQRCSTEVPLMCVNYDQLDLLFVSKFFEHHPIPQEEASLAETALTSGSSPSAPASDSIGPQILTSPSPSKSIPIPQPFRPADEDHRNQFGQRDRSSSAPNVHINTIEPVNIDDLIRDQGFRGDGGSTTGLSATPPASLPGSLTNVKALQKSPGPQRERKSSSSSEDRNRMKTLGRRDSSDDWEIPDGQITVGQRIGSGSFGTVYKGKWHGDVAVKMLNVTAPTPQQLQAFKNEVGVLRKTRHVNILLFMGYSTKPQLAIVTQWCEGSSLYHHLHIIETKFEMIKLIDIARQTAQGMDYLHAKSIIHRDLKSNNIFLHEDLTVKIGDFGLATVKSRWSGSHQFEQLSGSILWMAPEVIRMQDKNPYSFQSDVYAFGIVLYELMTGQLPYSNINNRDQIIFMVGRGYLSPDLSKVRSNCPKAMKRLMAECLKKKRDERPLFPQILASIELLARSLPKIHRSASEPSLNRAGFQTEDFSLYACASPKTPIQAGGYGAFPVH
EGFR kinase, sequence (P00533 25-1210): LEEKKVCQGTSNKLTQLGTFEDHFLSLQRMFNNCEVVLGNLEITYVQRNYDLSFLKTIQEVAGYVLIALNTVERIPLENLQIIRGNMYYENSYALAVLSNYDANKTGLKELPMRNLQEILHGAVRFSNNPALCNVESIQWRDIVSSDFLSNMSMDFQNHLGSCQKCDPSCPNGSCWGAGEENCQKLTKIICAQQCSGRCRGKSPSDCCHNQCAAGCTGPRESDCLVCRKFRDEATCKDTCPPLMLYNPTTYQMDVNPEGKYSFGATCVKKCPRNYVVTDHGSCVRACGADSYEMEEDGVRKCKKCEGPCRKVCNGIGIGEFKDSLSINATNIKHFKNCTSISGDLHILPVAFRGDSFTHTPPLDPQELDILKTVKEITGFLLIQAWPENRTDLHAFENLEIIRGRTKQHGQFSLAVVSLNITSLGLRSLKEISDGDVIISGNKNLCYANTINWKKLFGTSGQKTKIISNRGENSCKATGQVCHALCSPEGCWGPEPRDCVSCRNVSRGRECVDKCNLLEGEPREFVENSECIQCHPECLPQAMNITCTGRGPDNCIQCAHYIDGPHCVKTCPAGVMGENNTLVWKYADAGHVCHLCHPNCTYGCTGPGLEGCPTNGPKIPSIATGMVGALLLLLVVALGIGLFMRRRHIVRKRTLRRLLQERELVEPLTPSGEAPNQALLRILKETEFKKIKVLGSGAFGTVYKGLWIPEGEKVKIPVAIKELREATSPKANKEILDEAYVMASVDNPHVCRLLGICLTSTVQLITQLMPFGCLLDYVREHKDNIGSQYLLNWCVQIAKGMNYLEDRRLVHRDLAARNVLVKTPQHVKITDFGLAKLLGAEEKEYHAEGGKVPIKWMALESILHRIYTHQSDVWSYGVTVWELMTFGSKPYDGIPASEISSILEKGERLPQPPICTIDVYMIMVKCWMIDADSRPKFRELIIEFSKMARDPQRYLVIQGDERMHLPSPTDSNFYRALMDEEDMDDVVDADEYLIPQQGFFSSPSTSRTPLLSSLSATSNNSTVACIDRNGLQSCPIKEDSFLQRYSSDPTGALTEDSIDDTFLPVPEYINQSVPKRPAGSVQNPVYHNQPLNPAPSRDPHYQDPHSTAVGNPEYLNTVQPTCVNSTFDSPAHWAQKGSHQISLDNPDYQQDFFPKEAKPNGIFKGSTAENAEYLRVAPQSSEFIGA

Row | Structure (SMILES) | IC50 (MDA-MB-231 cells) [µM] | IC50 (EGFR kinase) [µM] | IC50 (human TS (hTS)) [µM] | IC50 (A549 cells) [nM] | IC50 (SGC7901 cells) [µM] | IC50 (BRaf kinase) [µM] | IC50 (HepG2 cells) [µM] | melting point [°C] | IC50 (HCT-116 cells) [µM] | IC50 (OVCAR-3 cells) [µM]
1 | O=C(Nc1ccc(Cl)cc1)Nc1ccc(NS(=O)(=O)c2c[nH]c(=O)[nH]c2=O)cc1 [Compound L13f, N'-(4-chlorophenyl)-4-(2,4-dihydroxypyrimidine-5-sulfonamido)phenylurea] | 8.89 ± 2.42 | 4.65 | 6.3 | 990 ± 70 | 3.98 ± 0.05 | 3.59 | 4.35 ± 0.45 | 175 to 177 | 5.53 ± 0.25 | 8.04 ± 0.32
2 | Cc1ccc(NC(=O)Nc2cccc(NS(=O)(=O)c3c[nH]c(=O)[nH]c3=O)c2)cc1 [Compound L15i, N'-(4-methylphenyl)-3-(2,4-dihydroxypyrimidine-5-sulfonamido)phenyl urea] | 9.06 ± 1.13 | 8.67 | 8.3 | 4180 ± 460 | 6.96 ± 1.53 | 7.23 | 6.96 ± 0.59 | 173 to 175 | 9.5 ± 1.6 | > 10
3 | CNC(=O)c1cc(Oc2ccc(NC(=O)Nc3ccc(Cl)c(C(F)(F)F)c3)cc2)ccn1 [Sorafenib, reference compound] | > 10 | – | – | > 10000 | > 10 | – | 8.21 ± 0.34 | – | > 10 | > 10
4 | O=C(Nc1ccc(Cl)cc1)Nc1ccccc1NS(=O)(=O)c1c[nH]c(=O)[nH]c1=O [Compound L14f, N'-(4-chlorophenyl)-2-(2,4-dihydroxypyrimidine-5-sulfonamido)phenyl urea] | 4.54 ± 0.41 | 2.23 | 2.12 | 1380 ± 270 | 3.98 ± 0.33 | 1.71 | 1.62 ± 0.1 | 160 to 163 | 4.22 ± 0.31 | 6.52 ± 0.5
5 | O=C(Nc1cccc(NS(=O)(=O)c2c[nH]c(=O)[nH]c2=O)c1)Nc1ccccc1Cl [Compound L15d, N'-(2-chlorophenyl)-3-(2,4-dihydroxypyrimidine-5-sulfonamido)phenylurea] | 2.04 ± 0.29 | 7.65 | 3.81 | 1870 ± 120 | 5.25 ± 0.81 | 4.09 | 4.97 ± 0.36 | 159 to 162 | 2.65 ± 0.33 | 6.3 ± 0.25
6 | Cc1ccccc1NC(=O)Nc1ccc(NS(=O)(=O)c2c[nH]c(=O)[nH]c2=O)cc1 [Compound L13g, N'-(2-methylphenyl)-4-(2,4-dihydroxypyrimidine-5-sulfonamido)phenyl urea] | > 10 | > 10 | 9.25 | 4680 ± 110 | 6.39 ± 0.19 | > 10 | 9.16 ± 0.12 | 169 to 173 | 4.75 ± 0.07 | 2.68 ± 0.38
7 | O=C(Nc1cccc(Cl)c1)Nc1cccc(NS(=O)(=O)c2c[nH]c(=O)[nH]c2=O)c1 [Compound L15e, N'-(3-chlorophenyl)-3-(2,4-dihydroxypyrimidine-5-sulfonamido)phenylurea] | 3.13 ± 0.09 | 4.37 | 2.17 | 870 ± 280 | 2.58 ± 0.43 | 2.96 | 2.29 ± 0.29 | 162 to 166 | 3.3 ± 0.07 | 1.19 ± 0.49
8 | O=C(Nc1ccc(NS(=O)(=O)c2c[nH]c(=O)[nH]c2=O)cc1)Nc1cccc(Cl)c1 [Compound L13e, N'-(3-chlorophenyl)-4-(2,4-dihydroxypyrimidine-5-sulfonamido)phenylurea] | 2.48 ± 1.46 | 4.41 | 4.55 | 950 ± 50 | 3.38 ± 0.18 | 3.64 | 2.81 ± 0.16 | 169 to 171 | 2.46 ± 0.06 | 1.05 ± 0.42
9 | O=C(Nc1ccc(Cl)cc1)Nc1cccc(NS(=O)(=O)c2c[nH]c(=O)[nH]c2=O)c1 [Compound L15f, N'-(4-chlorophenyl)-3-(2,4-dihydroxypyrimidine-5-sulfonamido)phenylurea] | 3.2 ± 0.62 | 5.54 | 1.55 | 1010 ± 110 | 4.28 ± 0.67 | 2.68 | 3.07 ± 0.29 | 169 to 171 | 7.61 ± 0.04 | 1.49 ± 0.28
10 | Cc1ccccc1NC(=O)Nc1cccc(NS(=O)(=O)c2c[nH]c(=O)[nH]c2=O)c1 [Compound L15g, N'-(2-methylphenyl)-3-(2,4-dihydroxypyrimidine-5-sulfonamido)phenyl urea] | > 10 | > 10 | > 10 | 8750 ± 610 | 7.04 ± 0.87 | > 10 | 7.66 ± 0.78 | 163 to 167 | 6.41 ± 1.83 | > 10
11 | Cc1ccccc1NC(=O)Nc1ccccc1NS(=O)(=O)c1c[nH]c(=O)[nH]c1=O [Compound L14g, N'-(2-methylphenyl)-2-(2,4-dihydroxypyrimidine-5-sulfonamido)phenyl urea] | > 10 | > 10 | 6.47 | 2090 ± 720 | 5.4 ± 0.09 | 7.41 | 5.59 ± 0.64 | 151 to 154 | 4.82 ± 0.19 | > 10
12 | Cc1cccc(NC(=O)Nc2ccccc2NS(=O)(=O)c2c[nH]c(=O)[nH]c2=O)c1 [Compound L14h, N'-(3-methylphenyl)-2-(2,4-dihydroxypyrimidine-5-sulfonamido)phenylurea] | 7.16 ± 0.9 | 4.28 | 3.52 | 1450 ± 60 | 3.3 ± 0.15 | 3.61 | > 10 | 155 to 158 | 5.39 ± 0.41 | 7.3 ± 0.68
13 | Cc1ccc(NC(=O)Nc2ccc(NS(=O)(=O)c3c[nH]c(=O)[nH]c3=O)cc2)cc1 [Compound L13i, N'-(4-methylphenyl)-4-(2,4-dihydroxypyrimidine-5-sulfonamido) phenyl urea] | > 10 | 5.48 | 7.39 | 3480 ± 130 | 4.92 ± 0.23 | 4.91 | 8.25 ± 0.25 | 181 to 183 | 7.98 ± 0.61 | > 10
14 | O=C(Nc1ccc(NS(=O)(=O)c2c[nH]c(=O)[nH]c2=O)cc1)Nc1ccccc1Cl [Compound L13d, N'-(2-chlorophenyl)-4-(2,4-dihydroxypyrimidine-5-sulfonamido)phenylurea] | > 10 | 4.22 | 2.36 | 2010 ± 140 | 5.3 ± 0.28 | 2.39 | 6.56 ± 0.15 | 167 to 169 | 4.13 ± 0.16 | 1.73 ± 0.44
15 | Cc1ccc(NC(=O)Nc2ccccc2NS(=O)(=O)c2c[nH]c(=O)[nH]c2=O)cc1 [Compound L14i, N'-(4-methylphenyl)-2-(2,4-dihydroxypyrimidine-5-sulfonamido)phenylurea] | 7.3 ± 0.1 | > 10 | 6.98 | 1370 ± 450 | 5.13 ± 0.44 | 5.45 | 5.72 ± 0.21 | 165 to 169 | 5.62 ± 0.61 | > 10
